Earlier results in patent publication US20250228808A1, “COMPOSITIONS AND METHODS FOR THE TREATMENT OF CORONAVIRUS DISEASES” (priority 2022, published 2025).

Key:
[1] = Lu S C 2000
[2] = entry into the cell
[3] = Sansone 2011

Row | Structure (SMILES) | half-life in the blood [1] | membrane permeability [2] | fraction of dose excreted by the kidneys [3]
1 | N[C@@H](CCC(=O)N[C@@H](CS)C(=O)NCC(=O)O)C(=O)O [GSH, glutathione] | seconds to minutes | membrane-impermeable | 
2 | CC(=O)N[C@@H](CS)C(=O)O [NAC, N-acetyl cysteine] |  |  | one-third
